Data set [1] deals with Staphylococcus aureus. The data set is described as follows: Bactericidal activity against Staphylococcus aureus ATCC 25923 at 2 times MIC measured upto 1440 mins by time kill assay. Format: functional, organism-based.
The subject of data set [2] is Staphylococcus aureus. Nature of the data set: Antibacterial activity against Staphylococcus aureus ATCC 25923 infected in BALB/c mouse systemic infection model assessed as reduction in bacterial load in liver at 20 mg/kg, ip pre-infected for 2 hrs followed by compound addition and measured after 8 hrs postinfection. Format: functional, organism-based. The following applies: time 6.0 hrs.

Data set [3] relates to Staphylococcus aureus. The data set is described as follows: Antibacterial activity against Staphylococcus aureus ATCC 25923 infected in BALB/c mouse systemic infection model assessed as reduction in bacterial load in spleen at 20 mg/kg, ip pre-infected for 2 hrs followed by compound addition and measured after 8 hrs postinfection. The format is functional, organism-based. Conditions: time 6.0 hrs.

Data set [4] is described as follows: Toxicity in ip dosed BALB/c mouse assessed as inflammatory cell infiltration in kidney at LD50 dose by H and E staining based assay. The format is organism-based. Conditions: in vivo.
Data set [5] has as its system Klebsiella pneumoniae. The data set is described as follows: Antibacterial activity against Klebsiella pneumoniae ATCC 700603 infected in BALB/c mouse lung infection model assessed as removal of bacterial load at 5 mg/kg, ip administered twice daily for 3 days and measured after 6 days. The following applies: time 9 day. The format is functional.
Data set [6] concerns Klebsiella pneumoniae. Nature of the data set: Bactericidal activity against Klebsiella pneumoniae ATCC 700603 at 2 times MIC measured upto 1440 mins by time kill assay. The format is functional, organism-based.
The test system of data set [7] is Staphylococcus aureus. Nature of the data set: Antibacterial activity against Staphylococcus aureus ATCC 25923 infected in BALB/c mouse systemic infection model assessed as reduction in bacterial load in lung at 20 mg/kg, ip pre-infected for 2 hrs followed by compound addition and measured after 8 hrs postinfection. The following applies: time 6.0 hrs. Format: functional, organism-based.

Data set [8] has as its system Staphylococcus aureus. The data set is described as follows: Antibacterial activity against Staphylococcus aureus ATCC 25923 infected in BALB/c mouse systemic infection model assessed as reduction in inflammatory response in lung tissue at 20 mg/kg, ip pre-infected for 2 hrs followed by compound addition and measured after 8 hrs postinfection. Format: functional, organism-based. The following applies: time 6.0 hrs.

The test system of data set [9] is Staphylococcus aureus. Nature of the data set: Antibacterial activity against Staphylococcus aureus ATCC 25923 infected in BALB/c mouse systemic infection model assessed as improved alveoli dilation at 20 mg/kg, ip pre-infected for 2 hrs followed by compound addition and measured after 8 hrs postinfection. Format: functional, organism-based. Conditions: time 6.0 hrs.

Data set [10] has as its system Staphylococcus aureus. Nature of the data set: Antibacterial activity against Staphylococcus aureus ATCC 25923 assessed as fold increase in MIC preincubated with serum for 6 hrs followed by 15 mins inactivation prior to bacteria addition and measured after 18 to 24 hrs. The format is functional. Conditions: time 18-24 hrs.
Data set [11] deals with Klebsiella pneumoniae. Nature of the data set: Antibacterial activity against Klebsiella pneumoniae ATCC 700603 infected in BALB/c mouse lung infection model assessed as improved alveolar aggregation at 5 mg/kg, ip administered twice daily for 3 days and measured after 7 days. Format: functional, organism-based. Conditions: time 10.0 day.
Data set [12] deals with Escherichia coli. Nature of the data set: Antibacterial activity against Escherichia coli ATCC 25922 in presence of ZnCl2. The format is functional, organism-based.
A short description of data set [13]: Toxicity in ip dosed BALB/c mouse assessed as effect on spleen at LD50 dose by H and E staining based assay. The following applies: in vivo. The format is organism-based.
Data set [14] concerns Klebsiella pneumoniae. The data set is described as follows: Antibacterial activity against Klebsiella pneumoniae ATCC 700603 infected in BALB/c mouse lung infection model assessed as improved alveolar aggregation at 5.31 mg/kg, ip administered twice daily for 3 days and measured after 7 days. The format is functional, organism-based. The following applies: time 10.0 day.

A short description of data set [15]: Toxicity in ip dosed BALB/c mouse assessed as liver edema at LD50 dose by H and E staining based assay. The following applies: in vivo. The format is organism-based.
In data set [16] the test system is Staphylococcus aureus. Nature of the data set: Antibacterial activity against Staphylococcus aureus ATCC 25923 infected in BALB/c mouse systemic infection model assessed as reduction in bacterial load in liver at 21.21 mg/kg, ip pre-infected for 2 hrs followed by compound addition and measured after 8 hrs postinfection. Format: functional, organism-based. Conditions: time 6.0 hrs.

Data set [17] can be described thus: Toxicity in ip dosed BALB/c mouse assessed as kidney edema at LD50 dose by H and E staining based assay. The format is organism-based. The following applies: in vivo.
Data set [18] concerns Escherichia coli. The data set is described as follows: Antibacterial activity against Escherichia coli ATCC 25922 preincubated with serum for 6 hrs followed by 15 mins inactivation prior to bacteria addition and measured after 18 to 24 hrs. The format is functional, organism-based. The following applies: time 18-24 hrs.
For data set [19], the system named is Staphylococcus aureus. Nature of the data set: Antibacterial activity against Staphylococcus aureus ATCC 25923 infected in BALB/c mouse systemic infection model assessed as reduction in bacterial load in spleen at 21.21 mg/kg, ip pre-infected for 2 hrs followed by compound addition and measured after 8 hrs postinfection. The format is functional, organism-based. The following applies: time 6.0 hrs.

Data set [20] concerns Staphylococcus aureus. Nature of the data set: Antibacterial activity against Staphylococcus aureus ATCC 25923 in presence of KCl. Format: functional, organism-based.
Data set [21] concerns Staphylococcus aureus. The data set is described as follows: Antibacterial activity against Staphylococcus aureus ATCC 25923 preincubated with serum for 6 hrs followed by 15 mins inactivation prior to bacteria addition and measured after 18 to 24 hrs. Format: functional, organism-based. The following applies: time 18-24 hrs.
Data set [22] concerns Klebsiella pneumoniae. The data set is described as follows: Antibacterial activity against Klebsiella pneumoniae ATCC 700603 infected in BALB/c mouse lung infection model assessed as removal of bacterial load at 5.31 mg/kg, ip administered twice daily for 3 days and measured after 6 days. The following applies: time 9 day. Format: functional.
Data set [23] deals with Staphylococcus aureus. Nature of the data set: Antibacterial activity against Staphylococcus aureus ATCC 25923 in presence of MgCl2. Format: functional, organism-based.
Data set [24] is described as follows: Toxicity in ip dosed BALB/c mouse assessed as effect on heart at LD50 dose by H and E staining based assay. The format is organism-based. The following applies: in vivo.
Data set [25] is described as follows: Toxicity in ip dosed BALB/c mouse assessed as liver bleeding at LD50 dose by H and E staining based assay. Format: organism-based. The following applies: in vivo.

Calls of active or inactive are those of the source. The calls are words filed in the database; no cut-off is given here. Non-standard residues stand in square brackets, D forms with d. Residues, ends and D or L forms follow the SMILES beside them. Bip = N[C@@H](Cc1ccc(-c2ccccc2)cc1)C(=O)O; pY = N[C@@H](Cc1ccc(OP(=O)(O)O)cc1)C(=O)O

Turning to `CC(C)C[C@H](NC(=O)[C@H](CC(C)C)NC(=O)[C@H](Cc1ccc(O)cc1)NC(=O)[C@H](CCCCN)NC(=O)[C@H](CC(C)C)NC(=O)[C@H](CCCNC(=N)N)NC(=O)[C@H](CCCCN)NC(=O)[C@H](Cc1ccc(-c2ccccc2)cc1)NC(=O)[C@H](CC(C)C)NC(=O)CN)C(N)=O` (H-GL[Bip]KRLKYLL-NH2), the result in [1], in data set [2], in [3], in [6], in data set [7] and in data set [8] was Active. The result in data set [9] and in data set [11] was Active. For the same compound, the Activity result in data set [4] is recorded as “Toxic”; in data set [5], 100%. For the same compound, the “fold change (FC)” value in [10] is 2.

In the case of `CC(C)C[C@H](NC(=O)[C@H](CC(C)C)NC(=O)[C@H](Cc1ccc(OP(=O)(O)O)cc1)NC(=O)[C@H](CCCCN)NC(=O)[C@H](CC(C)C)NC(=O)[C@H](CCCNC(=N)N)NC(=O)[C@H](CCCCN)NC(=O)[C@H](Cc1ccc(-c2ccccc2)cc1)NC(=O)[C@H](CC(C)C)NC(=O)CN)C(N)=O` (H-GL[Bip]KRLK[pY]LL-NH2), the Activity entry is given as “Active; Compound Showed Excellent Tolerance Towards Salt Environment” in data set [12]; “Toxic” in data set [13]; “Toxic” in data set [15]; “Toxic” in data set [17]; “Active; Antibacterial Activity Remained Unaffected” in [18]; “Active; Compound Showed Excellent Tolerance Towards Salt Environment” in data set [20]. Further, the Activity entry in [21] is “Active; Antibacterial Activity Remained Unaffected”; in data set [22] it was 100%; in data set [23] it was “Active; Compound Showed Excellent Tolerance Towards Salt Environment”; in data set [24], “Toxic”; in data set [25], “Toxic”. The outcome in data set [14], in [16] and in data set [19] was Active.

The values above are taken from ChEMBL document CHEMBL6092167, “Phosphorylation as an Effective Tool to Improve Stability and Reduce Toxicity of Antimicrobial Peptides” (J Med Chem, 2024).
